Test results published in patent US20260130395A1, “Water Dispersible Botanical Compositions” (Aquila Black Limited, priority 2021, published 2026).

Assay: Stability of cannabinoid compounds and Vitamin E components in Beverage 1 (AB White) by LCMSMS
Format: physicochemical
Conditions: for Stability of Plant-Derived Cannabinoid Compounds in AB White, 8° C.: AB White stored at 8° C.; for Stability of Plant-Derived Cannabinoid Compounds in AB White, 21-25° C.: AB White stored at 21-25° C.

## C=C(C)[C@@H]1CCC(C)=C[C@H]1c1c(O)cc(CCCCC)c(C(=O)O)c1O [CBDA, cannabidiolic acid]
0 days
  Stability of Plant-Derived Cannabinoid Compounds in AB White, 8° C.: 1.75 µg/mL
  Stability of Plant-Derived Cannabinoid Compounds in AB White, 21-25° C.: 1.75 µg/mL
1 days
  Stability of Plant-Derived Cannabinoid Compounds in AB White, 8° C.: 1.72 µg/mL
  Stability of Plant-Derived Cannabinoid Compounds in AB White, 21-25° C.: 1.76 µg/mL
2 days
  Stability of Plant-Derived Cannabinoid Compounds in AB White, 8° C.: 1.76 µg/mL
  Stability of Plant-Derived Cannabinoid Compounds in AB White, 21-25° C.: 1.70 µg/mL
3 days
  Stability of Plant-Derived Cannabinoid Compounds in AB White, 8° C.: 1.76 µg/mL
  Stability of Plant-Derived Cannabinoid Compounds in AB White, 21-25° C.: 1.71 µg/mL
5 days
  Stability of Plant-Derived Cannabinoid Compounds in AB White, 8° C.: 1.71 µg/mL
  Stability of Plant-Derived Cannabinoid Compounds in AB White, 21-25° C.: 1.69 µg/mL
8 days
  Stability of Plant-Derived Cannabinoid Compounds in AB White, 8° C.: 1.75 µg/mL
  Stability of Plant-Derived Cannabinoid Compounds in AB White, 21-25° C.: 1.77 µg/mL
9 days
  Stability of Plant-Derived Cannabinoid Compounds in AB White, 8° C.: 1.73 µg/mL
  Stability of Plant-Derived Cannabinoid Compounds in AB White, 21-25° C.: 1.74 µg/mL
10 days
  Stability of Plant-Derived Cannabinoid Compounds in AB White, 8° C.: 1.76 µg/mL
  Stability of Plant-Derived Cannabinoid Compounds in AB White, 21-25° C.: 1.73 µg/mL
11 days
  Stability of Plant-Derived Cannabinoid Compounds in AB White, 8° C.: 1.70 µg/mL
  Stability of Plant-Derived Cannabinoid Compounds in AB White, 21-25° C.: 1.76 µg/mL
12 days
  Stability of Plant-Derived Cannabinoid Compounds in AB White, 8° C.: 1.71 µg/mL
  Stability of Plant-Derived Cannabinoid Compounds in AB White, 21-25° C.: 1.74 µg/mL
15 days
  Stability of Plant-Derived Cannabinoid Compounds in AB White, 8° C.: 1.74 µg/mL
  Stability of Plant-Derived Cannabinoid Compounds in AB White, 21-25° C.: 1.69 µg/mL
16 days
  Stability of Plant-Derived Cannabinoid Compounds in AB White, 8° C.: 1.73 µg/mL
  Stability of Plant-Derived Cannabinoid Compounds in AB White, 21-25° C.: 1.75 µg/mL
17 days
  Stability of Plant-Derived Cannabinoid Compounds in AB White, 8° C.: 1.73 µg/mL
  Stability of Plant-Derived Cannabinoid Compounds in AB White, 21-25° C.: 1.72 µg/mL
18 days
  Stability of Plant-Derived Cannabinoid Compounds in AB White, 8° C.: 1.76 µg/mL
  Stability of Plant-Derived Cannabinoid Compounds in AB White, 21-25° C.: 1.75 µg/mL
19 days
  Stability of Plant-Derived Cannabinoid Compounds in AB White, 8° C.: 1.74 µg/mL
  Stability of Plant-Derived Cannabinoid Compounds in AB White, 21-25° C.: 1.70 µg/mL
22 days
  Stability of Plant-Derived Cannabinoid Compounds in AB White, 8° C.: 1.70 µg/mL
  Stability of Plant-Derived Cannabinoid Compounds in AB White, 21-25° C.: 1.70 µg/mL
23 days
  Stability of Plant-Derived Cannabinoid Compounds in AB White, 8° C.: 1.76 µg/mL
  Stability of Plant-Derived Cannabinoid Compounds in AB White, 21-25° C.: 1.73 µg/mL
24 days
  Stability of Plant-Derived Cannabinoid Compounds in AB White, 8° C.: 1.72 µg/mL
  Stability of Plant-Derived Cannabinoid Compounds in AB White, 21-25° C.: 1.70 µg/mL
25 days
  Stability of Plant-Derived Cannabinoid Compounds in AB White, 8° C.: 1.75 µg/mL
  Stability of Plant-Derived Cannabinoid Compounds in AB White, 21-25° C.: 1.73 µg/mL
26 days
  Stability of Plant-Derived Cannabinoid Compounds in AB White, 8° C.: 1.75 µg/mL
  Stability of Plant-Derived Cannabinoid Compounds in AB White, 21-25° C.: 1.75 µg/mL
29 days
  Stability of Plant-Derived Cannabinoid Compounds in AB White, 8° C.: 1.75 µg/mL
  Stability of Plant-Derived Cannabinoid Compounds in AB White, 21-25° C.: 1.76 µg/mL
30 days
  Stability of Plant-Derived Cannabinoid Compounds in AB White, 8° C.: 1.76 µg/mL
  Stability of Plant-Derived Cannabinoid Compounds in AB White, 21-25° C.: 1.71 µg/mL
60 days
  Stability of Plant-Derived Cannabinoid Compounds in AB White, 8° C.: 1.70 µg/mL
  Stability of Plant-Derived Cannabinoid Compounds in AB White, 21-25° C.: 1.68 µg/mL
90 days
  Stability of Plant-Derived Cannabinoid Compounds in AB White, 8° C.: 1.70 µg/mL
  Stability of Plant-Derived Cannabinoid Compounds in AB White, 21-25° C.: 1.67 µg/mL
120 days
  Stability of Plant-Derived Cannabinoid Compounds in AB White, 8° C.: 1.67 µg/mL
  Stability of Plant-Derived Cannabinoid Compounds in AB White, 21-25° C.: 1.66 µg/mL
150 days
  Stability of Plant-Derived Cannabinoid Compounds in AB White, 8° C.: 1.71 µg/mL
  Stability of Plant-Derived Cannabinoid Compounds in AB White, 21-25° C.: 1.64 µg/mL
180 days
  Stability of Plant-Derived Cannabinoid Compounds in AB White, 8° C.: 1.75 µg/mL
  Stability of Plant-Derived Cannabinoid Compounds in AB White, 21-25° C.: 1.69 µg/mL
210 days
  Stability of Plant-Derived Cannabinoid Compounds in AB White, 8° C.: 1.68 µg/mL
  Stability of Plant-Derived Cannabinoid Compounds in AB White, 21-25° C.: 1.73 µg/mL
240 days
  Stability of Plant-Derived Cannabinoid Compounds in AB White, 8° C.: 1.70 µg/mL
  Stability of Plant-Derived Cannabinoid Compounds in AB White, 21-25° C.: 1.73 µg/mL
270 days
  Stability of Plant-Derived Cannabinoid Compounds in AB White, 8° C.: 1.70 µg/mL
  Stability of Plant-Derived Cannabinoid Compounds in AB White, 21-25° C.: 1.71 µg/mL
300 days
  Stability of Plant-Derived Cannabinoid Compounds in AB White, 8° C.: 1.69 µg/mL
  Stability of Plant-Derived Cannabinoid Compounds in AB White, 21-25° C.: 1.73 µg/mL
330 days
  Stability of Plant-Derived Cannabinoid Compounds in AB White, 8° C.: 1.70 µg/mL
  Stability of Plant-Derived Cannabinoid Compounds in AB White, 21-25° C.: 1.72 µg/mL
360 days
  Stability of Plant-Derived Cannabinoid Compounds in AB White, 8° C.: 1.70 µg/mL
  Stability of Plant-Derived Cannabinoid Compounds in AB White, 21-25° C.: 1.69 µg/mL
390 days
  Stability of Plant-Derived Cannabinoid Compounds in AB White, 8° C.: 1.70 µg/mL
  Stability of Plant-Derived Cannabinoid Compounds in AB White, 21-25° C.: 1.67 µg/mL
420 days
  Stability of Plant-Derived Cannabinoid Compounds in AB White, 8° C.: 1.67 µg/mL
  Stability of Plant-Derived Cannabinoid Compounds in AB White, 21-25° C.: 1.64 µg/mL
450 days
  Stability of Plant-Derived Cannabinoid Compounds in AB White, 8° C.: 1.68 µg/mL
  Stability of Plant-Derived Cannabinoid Compounds in AB White, 21-25° C.: 1.70 µg/mL
480 days
  Stability of Plant-Derived Cannabinoid Compounds in AB White, 8° C.: 1.66 µg/mL
  Stability of Plant-Derived Cannabinoid Compounds in AB White, 21-25° C.: 1.63 µg/mL
510 days
  Stability of Plant-Derived Cannabinoid Compounds in AB White, 8° C.: 1.61 µg/mL
  Stability of Plant-Derived Cannabinoid Compounds in AB White, 21-25° C.: 1.66 µg/mL
540 days
  Stability of Plant-Derived Cannabinoid Compounds in AB White, 8° C.: 1.61 µg/mL
  Stability of Plant-Derived Cannabinoid Compounds in AB White, 21-25° C.: 1.63 µg/mL
570 days
  Stability of Plant-Derived Cannabinoid Compounds in AB White, 8° C.: 1.60 µg/mL
  Stability of Plant-Derived Cannabinoid Compounds in AB White, 21-25° C.: 1.61 µg/mL
